In patent publication US12590091B2, “1H-pyrrolo[3,2-C]pyridine and 1H-pyrrolo[2,3-C]pyridine derivatives as TLR9 inhibitors for the treatment of fibrosis” (BRISTOL-MYERS SQUIBB COMPANY, priority 2020, dated 2026):

Target: T1, human TLR9 (Homo sapiens, UniProt Q9NR96)
T1 construct: host or cells: HEK-Blue cells
T1 sequence (Q9NR96 26-1032): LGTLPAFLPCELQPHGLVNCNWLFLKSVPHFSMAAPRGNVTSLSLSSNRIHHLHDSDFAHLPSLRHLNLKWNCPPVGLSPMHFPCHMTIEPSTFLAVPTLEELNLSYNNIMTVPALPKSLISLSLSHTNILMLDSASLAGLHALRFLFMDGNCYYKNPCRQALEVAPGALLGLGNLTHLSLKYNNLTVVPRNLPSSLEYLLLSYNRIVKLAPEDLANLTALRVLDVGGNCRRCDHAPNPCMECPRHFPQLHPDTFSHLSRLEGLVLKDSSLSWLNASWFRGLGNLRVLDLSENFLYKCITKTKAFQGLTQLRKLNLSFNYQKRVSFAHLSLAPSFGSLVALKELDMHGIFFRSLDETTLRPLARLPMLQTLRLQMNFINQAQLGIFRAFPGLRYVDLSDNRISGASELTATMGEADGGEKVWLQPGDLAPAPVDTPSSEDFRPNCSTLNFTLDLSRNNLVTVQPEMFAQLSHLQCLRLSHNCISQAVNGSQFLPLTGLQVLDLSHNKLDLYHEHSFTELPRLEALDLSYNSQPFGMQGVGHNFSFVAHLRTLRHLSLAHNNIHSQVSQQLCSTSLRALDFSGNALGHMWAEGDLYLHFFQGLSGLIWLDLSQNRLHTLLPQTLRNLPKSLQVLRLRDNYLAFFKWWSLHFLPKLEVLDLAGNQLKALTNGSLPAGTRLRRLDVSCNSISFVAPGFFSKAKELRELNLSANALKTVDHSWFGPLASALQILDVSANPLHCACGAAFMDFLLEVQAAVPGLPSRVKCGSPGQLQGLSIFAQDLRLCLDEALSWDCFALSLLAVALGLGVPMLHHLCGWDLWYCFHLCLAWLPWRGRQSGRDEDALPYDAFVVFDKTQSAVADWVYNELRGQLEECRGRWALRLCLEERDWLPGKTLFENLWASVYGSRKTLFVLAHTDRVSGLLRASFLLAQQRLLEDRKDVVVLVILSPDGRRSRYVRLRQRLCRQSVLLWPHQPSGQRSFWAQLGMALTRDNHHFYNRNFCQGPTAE
Test: TLR9 inhibition reporter assay (HEK-Blue cells, SEAP reporter)
Assay type: cell-based
Conditions: HEK-Blue cells overexpressing human TLR9, stimulated with ODN2006 5 nM, 22 hour incubation
How it was run: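 HEK-Blue cells overexpressing human TLR9 (25,000 cells/well), NF-κB/AP-1-driven SEAP reporter. Compounds at 0.05 nM–50 μM final, 22 h at 37 °C, 5% CO2 with agonist. SEAP detected with HEK-Blue Detection medium; % inhibition versus agonist plus DMSO and known-inhibitor wells.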

Row | IC50 [nM] | Compound
1 | 9 | COc1ccc(-c2cc3cnc(C4CCN(C5CCN(C(=O)c6ccccc6)CC5)CC4)cc3n2C)cc1OC [Example 26, (4-(2-(3,4-dimethoxyphenyl)-1-methyl-1H-pyrrolo[3,2-c]pyridin-6-yl)-[1,4′-bipiperidin]-1′-yl)(phenyl)methanone]
2 | 188 | Cc1nc(-c2ccc(C3(O)CCN(C(C)C)CC3)cc2F)cc2c1cc(-c1ccc(S(C)(=O)=O)cc1)n2C [Example 109, 4-(4-(1,4-dimethyl-2-(4-(methylsulfonyl)phenyl)-1H-pyrrolo[3,2-c]pyridin-6-yl)-3-fluorophenyl)-1-isopropylpiperidin-4-ol]
3 | 133 | CC(C)N1CCN(Cc2ccc(-c3cc4c(cc(-c5ccc(S(C)(=O)=O)cc5)n4C)c(C(C)(C)O)n3)cc2)CC1 [Example 125, 2-(6-(4-((4-isopropylpiperazin-1-yl)methyl)phenyl)-1-methyl-2-(4-(methylsulfonyl)phenyl)-1H-pyrrolo[3,2-c]pyridin-4-yl)propan-2-ol]
4 | 52 | Cc1nc(-c2ccc([C@@]3(O)CCN(C(C)C)C(C)(C)C3)c(F)c2)cc2c1cc(-c1ccc(S(C)(=O)=O)cc1)n2C [Example 105, (R)-4-(4-(1,4-dimethyl-2-(4-(methylsulfonyl)phenyl)-1H-pyrrolo[3,2-c]pyridin-6-yl)-2-fluorophenyl)-1-isopropyl-2,2-dimethylpiperidin-4-ol]
5 | 72 | COc1ccc(-c2cc3cnc(-c4ccc(N5CCN(C(C)C)CC5)nc4)cc3n2C)cc1OC [Example 31, 2-(3,4-dimethoxyphenyl)-6-(6-(4-isopropylpiperazin-1-yl)pyridin-3-yl)-1-methyl-1H-pyrrolo[3,2-c]pyridine]
6 | 603 | COc1ccc(-c2c(C)[nH]c3cnc(C4CCN(C(=O)CN5CCCC5)CC4)cc23)cc1OC [Example 21, 1-(4-(3-(3,4-dimethoxyphenyl)-2-methyl-1H-pyrrolo[2,3-c]pyridin-5-yl)piperidin-1-yl)-2-(pyrrolidin-1-yl)ethan-1-one]
7 | 39 | COc1ccc(-c2c(C)[nH]c3cnc(C4CCN(C5CCN(C(=O)C(C)C)CC5)CC4)cc23)cc1OC [Example 15, 1-(4-(3-(3,4-dimethoxyphenyl)-2-methyl-1H-pyrrolo[2,3-c]pyridin-5-yl)-[1,4′-bipiperidin]-1′-yl)-2-methylpropan-1-one]
8 | 269 | COc1ccc(-c2cc3cnc(C4CCN(Cc5ccc(C(F)(F)F)nc5)CC4)cc3n2C)cc1OC [Example 28, 2-(3,4-dimethoxyphenyl)-1-methyl-6-(1-((6-(trifluoromethyl)pyridin-3-yl)methyl)piperidin-4-yl)-1H-pyrrolo[3,2-c]pyridine]
9 | 1570 | COc1ccc(-c2c(C)[nH]c3cnc(C4CCN(C(=O)CN(C)C)CC4)cc23)cc1OC [Example 22, 1-(4-(3-(3,4-dimethoxyphenyl)-2-methyl-1H-pyrrolo[2,3-c]pyridin-5-yl)piperidin-1-yl)-2-(dimethylamino)ethan-1-one]
10 | 57 | Cc1nc(-c2ccc(N3CCN(C4CCOC4)CC3)cc2)cc2c1cc(-c1ccc(S(C)(=O)=O)cc1)n2C (centres unmarked) [Example 37, 1,4-dimethyl-2-(4-(methylsulfonyl)phenyl)-6-(4-(4-(tetrahydrofuran-3-yl)piperazin-1-yl)phenyl)-1H-pyrrolo[3,2-c]pyridine]
11 | 114 | Cc1nc(-c2ccc(C3(O)CCN(C(C)C)CC3)cc2)cc2c1cc(-c1ccc(S(C)(=O)=O)cc1)n2C [Example 88, 4-(4-(1,4-dimethyl-2-(4-(methylsulfonyl)phenyl)-1H-pyrrolo[3,2-c]pyridin-6-yl)phenyl)-1-isopropylpiperidin-4-ol]
12 | 96 | Cc1nc(-c2ccc(CN3CCN(CC(C)(C)O)CC3)cc2)cc2c1cc(-c1ccc(S(C)(=O)=O)cc1)n2C [Example 44, 1-(4-(4-(1,4-Dimethyl-2-(4-(methylsulfonyl)phenyl)-1H-pyrrolo[3,2-c]pyridin-6-yl)benzyl)piperazin-1-yl)-2-methylpropan-2-ol]
13 | 73 | Cc1nc(-c2ccc(C3(O)CCN(C4CC4)CC3)cc2)cc2c1cc(-c1ccc(S(C)(=O)=O)cc1)n2C [Example 87, 1-cyclopropyl-4-(4-(1,4-dimethyl-2-(4-(methylsulfonyl)phenyl)-1H-pyrrolo[3,2-c]pyridin-6-yl)phenyl)piperidin-4-ol]
14 | 10 | Cc1nc(-c2ccc(N3CCN(CC(C)C)CC3)cc2)cc2c1cc(-c1ccc(S(C)(=O)=O)cc1)n2C [Example 34, 6-(4-(4-isobutylpiperazin-1-yl)phenyl)-1,4-dimethyl-2-(4-(methylsulfonyl)phenyl)-1H-pyrrolo[3,2-c]pyridine]
15 | 197 | COc1ccc(-c2cc3cnc(C4CCN(C(=O)CN5CCCCC5)CC4)cc3n2C)cc1OC [Example 25, 1-(4-(2-(3,4-dimethoxyphenyl)-1-methyl-1H-pyrrolo[3,2-c]pyridin-6-yl)piperidin-1-yl)-2-(piperidin-1-yl)ethan-1-one]
16 | 109 | Cc1nc(-c2ccc(CN3C[C@@H]4CC[C@H]3CN4CCC(C)(C)O)cc2)cc2c1cc(-c1ccc(S(C)(=O)=O)cc1)n2C [Example 61, 4-((1S,4S)-5-(4-(1,4-dimethyl-2-(4-(methylsulfonyl)phenyl)-1H-pyrrolo[3,2-c]pyridin-6-yl)benzyl)-2,5-diazabicyclo[2.2.2]octan-2-yl)-2-methylbutan-2-ol]
17 | 78 | Cc1nc(-c2ccc(N3CCN(CCO)CC3)c(F)c2)cc2c1cc(-c1ccc(S(C)(=O)=O)cc1)n2C [Example 69, 2-(4-(4-(1,4-dimethyl-2-(4-(methylsulfonyl)phenyl)-1H-pyrrolo[3,2-c]pyridin-6-yl)-2-fluorophenyl)piperazin-1-yl)ethan-1-ol]
18 | 161 | COc1ccc(-c2[nH]c3cnc(-c4ccc(N5CCN(C(C)C)CC5)cc4)cc3c2C)cc1OC [Example 1, 2-(3,4-Dimethoxyphenyl)-5-(4-(4-isopropylpiperazin-1-yl)phenyl)-3-methyl-1H-pyrrolo[2,3-c]pyridine]
19 | 772 | Cc1nc(-c2ccc(CN3CCC(C)(O)CC3)cc2)cc2c1cc(-c1ccc(S(C)(=O)=O)cc1)n2C [Example 59, 1-(4-(1,4-dimethyl-2-(4-(methylsulfonyl)phenyl)-1H-pyrrolo[3,2-c]pyridin-6-yl)benzyl)-4-methylpiperidin-4-ol]
20 | 133 | COc1ccc(-c2c(C)[nH]c3cnc(C4CCN(C(=O)C5CCN(C6CC6)CC5)CC4)cc23)cc1OC [Example 5, (1-Cyclopropylpiperidin-4-yl)(4-(3-(3,4-dimethoxyphenyl)-2-methyl-1H-pyrrolo[2,3-c]pyridin-5-yl)piperidin-1-yl)methanone]
21 | 399 | COc1ccc(-c2cc3cnc(-c4ccc(N5CCN(C(=O)c6ccccc6)CC5)cc4)cc3n2C)cc1OC [Example 29, (4-(4-(2-(3,4-dimethoxyphenyl)-1-methyl-1H-pyrrolo[3,2-c]pyridin-6-yl)phenyl)piperazin-1-yl)(phenyl)methanone]
22 | 47 | Cc1nc(-c2ccc([C@]3(O)CCN(C(C)C)C(C)(C)C3)c(F)c2)cc2c1cc(-c1ccc(S(C)(=O)=O)cc1)n2C [Example 106, (S)-4-(4-(1,4-dimethyl-2-(4-(methylsulfonyl)phenyl)-1H-pyrrolo[3,2-c]pyridin-6-yl)-2-fluorophenyl)-1-isopropyl-2,2-dimethylpiperidin-4-ol]
23 | 59 | COc1ccc(-c2cc3cnc(-c4ccc(N5CCN(C(C)C)CC5)cc4)cc3n2C)cc1OC [Example 24, 2-(3,4-dimethoxyphenyl)-6-(4-(4-isopropylpiperazin-1-yl)phenyl)-1-methyl-1H-pyrrolo[3,2-c]pyridine]
24 | 130 | COc1ccc(-c2c(C)n(C)c3cnc(C4CCN(C5CCN(C(=O)c6ccccc6)CC5)CC4)cc23)cc1OC [Example 19, (4-(3-(3,4-dimethoxyphenyl)-1,2-dimethyl-1H-pyrrolo[2,3-c]pyridin-5-yl)-[1,4′-bipiperidin]-1′-yl)(phenyl)methanone]
25 | 66 | COc1ccc(-c2cc3cnc(-c4ccc(N5CCN(C6CCC6)CC5)cc4)cc3n2C)cc1OC [Example 10, 6-(4-(4-Cyclobutylpiperazin-1-yl)phenyl)-2-(3,4-dimethoxyphenyl)-1-methyl-1H-pyrrolo[3,2-c]pyridine]
26 | 153 | CCOC(=O)N1CCC(N2CCC(c3cc4c(-c5ccc(OC)c(OC)c5)c(C)n(C)c4cn3)CC2)CC1 [Example 20, ethyl 4-(3-(3,4-dimethoxyphenyl)-1,2-dimethyl-1H-pyrrolo[2,3-c]pyridin-5-yl)-[1,4′-bipiperidine]-1′-carboxylate]
